Literature values as cited in patent US8748570B2, “Insulin analogues” (priority 2010, dated 2014).
Like-named read-outs stand apart in the source and are kept apart here.

Experiments:
[1] = test system: cultured human lymphocytes
IGF-IR = IGF-IR (Homo sapiens, UniProt P08069)

A7, B7-(2,7-diaminosuberoyl]-des-(B26-B30)-insulin B25-amide [dicarba-A7-B7-insulin]
EC50 (isolated rat adipocytes; lipogenesis, read-out: ED50 (the source's name)): 4.8 nM
relative potency compared to human insulin (isolated rat adipocytes; on a molar basis): 0.66%
relative potency compared to human insulin (isolated rat adipocytes; on a weight basis): 0.72%
Relative binding affinity [1]: 0.1 % of human insulin

Glargine insulin: long-acting insulin: two arginines added to the B-chain C-terminus, glycine at A21
IGF-IR binding (IGF-IR): enhanced
duration of activity (in vivo): 24 h
peak time of effect (in vivo): no peak effect

detemir: long-acting insulin with a fatty acid chain on the ε-amino group of LysB29
in vivo potency: reduced
